Values of other authors in patent US20040101478A1, “In vivo methods of determining activity of receptor-type kinase inhibitors” (priority 2003, published 2004).

Target: KDR kinase (Homo sapiens, UniProt P35968)
Conditions: Kasahara et al., 2000, J. Clin. Invest. 106: 1311-1319; cited from earlier work

KDR kinase, sequence (P35968 20-1356): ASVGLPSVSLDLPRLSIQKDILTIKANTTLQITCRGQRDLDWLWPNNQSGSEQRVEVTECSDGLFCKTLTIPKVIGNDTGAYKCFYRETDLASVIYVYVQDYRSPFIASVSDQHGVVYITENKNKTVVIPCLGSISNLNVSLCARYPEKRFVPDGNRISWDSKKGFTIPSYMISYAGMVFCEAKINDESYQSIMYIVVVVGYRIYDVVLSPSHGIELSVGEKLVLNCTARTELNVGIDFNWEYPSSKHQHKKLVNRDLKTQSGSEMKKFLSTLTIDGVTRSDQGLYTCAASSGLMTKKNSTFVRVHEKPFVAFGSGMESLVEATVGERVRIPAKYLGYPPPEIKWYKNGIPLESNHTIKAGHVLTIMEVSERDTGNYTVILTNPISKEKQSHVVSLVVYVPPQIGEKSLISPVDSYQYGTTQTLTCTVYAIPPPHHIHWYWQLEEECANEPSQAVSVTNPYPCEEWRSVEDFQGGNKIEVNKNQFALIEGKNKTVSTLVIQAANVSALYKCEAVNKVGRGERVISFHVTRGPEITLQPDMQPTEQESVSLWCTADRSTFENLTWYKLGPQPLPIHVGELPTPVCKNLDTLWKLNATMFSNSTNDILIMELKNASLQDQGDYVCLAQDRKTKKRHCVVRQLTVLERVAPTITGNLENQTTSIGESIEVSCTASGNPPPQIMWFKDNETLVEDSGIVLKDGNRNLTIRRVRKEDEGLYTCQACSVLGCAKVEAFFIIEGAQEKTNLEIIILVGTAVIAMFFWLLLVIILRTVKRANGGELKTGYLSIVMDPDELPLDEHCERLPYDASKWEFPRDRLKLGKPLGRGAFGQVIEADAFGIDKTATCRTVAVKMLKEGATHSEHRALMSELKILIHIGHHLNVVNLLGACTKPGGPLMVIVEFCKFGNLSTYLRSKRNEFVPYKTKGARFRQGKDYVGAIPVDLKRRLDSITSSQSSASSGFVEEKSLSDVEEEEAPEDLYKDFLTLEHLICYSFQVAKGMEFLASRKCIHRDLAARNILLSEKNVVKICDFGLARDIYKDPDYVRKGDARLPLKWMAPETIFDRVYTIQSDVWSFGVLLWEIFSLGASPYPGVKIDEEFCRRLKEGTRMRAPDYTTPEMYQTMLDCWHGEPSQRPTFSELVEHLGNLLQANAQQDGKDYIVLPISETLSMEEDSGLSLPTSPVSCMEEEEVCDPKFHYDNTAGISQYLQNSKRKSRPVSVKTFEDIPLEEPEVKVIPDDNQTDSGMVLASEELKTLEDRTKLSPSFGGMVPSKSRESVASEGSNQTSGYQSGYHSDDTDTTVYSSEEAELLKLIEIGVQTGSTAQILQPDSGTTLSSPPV

Cc1cc(C)c(/C=C2\C(=O)Nc3ccccc32)[nH]1 [SU5416]
inhibition of VEGF-induced phosphorylation: inhibition of VEGF-induced phosphorylation
